From US20150010651A1, “Compositions and methods for the treatment of wounds” (priority 2009, published 2015)
Where “and” joins values, the source holds several entries; their conditions need not be identical. Equal values may be shown once. Entries after “also recorded” stand apart in the source; their conditions may differ.

Experiments:
[1] = test system: diabetic ulcer (non-healing wound); assay: Case studies: powdered wound composition applied topically to infected non-healing wounds / diabetic ulcers of patients; type: in vivo, human
Source text: Thereafter, the wound compositions may be applied to the wound at least once a week until such time as the wound is satisfactorily healed. In one embodiment, a wound composition is applied once a week (after the initial daily application) for a period of at least seven weeks. It is understood that prior to each application, the wound may be rinsed with a sterile solution, such as saline, and allowed to dry. Thereafter, a wound composition may be applied and the wound wrapped in a suitable dressing.
A treatment plan was established for the patient. Under the treatment plan, the patient received: 1) Insulin 70/30 (Novoline) 50 IU morning, 25 IU night; and 2) intravenueously, Co-Amoxiclav 1.2 g+Gentamicin 80 mg+Metronidazole 400 mg in 100 ml N Saline/30 min (every 8 hours). After the injection of the intravenous antibiotics, the patient began taking oral antibiotics: 1) Co-Amoxiclav 625 mg (2 tablets) (twice daily); 2) Ciprofloxacin 500 mg once daily for 2 weeks; and 3) Ibuprofen 600 mg for 5 days (every 8 hours). Thereafter, the wound was cleaned with saline solution. A wound composition comprising a mixture of 300 mg powdered phenyloin (Dilantin®) and 500 mg of powdered Vitamin C was administered over the wound and the wound was dressed. The patient was advised to come back on a daily basis for dressing of the wound and reapplication of the wound composition.
(§1) The patient returned for 9 consecutive visits over the next nine days. Thereafter, the patient began weekly visits. With each visit, the wound was cleaned with saline solution and the powdered wound composition was applied topically to the wound, and redressed.
A treatment plan was established for the patient. Under the treatment plan, the patient received: 1) Insulin 70/30 (Novoline) 40 IU morning, 20IU night; and 2) intravenueously, Co-Amoxiclav 1.2 g+Gentamicin 80 mg+Metronidazole 400 mg in 100 ml N Saline/30 min. every 8 hours. After the injection of the intravenous antibiotics, the patient began taking oral antibiotics: 1) Co-Amoxiclav 625 mg (2 tablets) twice daily 2) Ciprofloxacin 500 mg once daily for 2 weeks; and 3) Ibuprofen 600 mg every 8 hours.; and (4) Co-diovan tablets (valsartan and hydrochlorothiazide) 80 mg/12.5 mg daily. Thereafter, the wound was cleaned with saline solution. A wound composition comprising 300 mg powdered phenyloin (Dilantin®) was administered over the wound and the wound was dressed. The patient was advised to come back on a daily basis for dressing of the wound and reapplication of the wound composition.
as §1, with “redressed. […] No further treatment was prescribed to the patient.” for “redressed.”

diabetic ulcers = conditions: patients with diabetic ulcers; control group 45 days; cited from earlier work
[2] = one patient per Example, topical, weekly application, week 8

For O=C1NC(=O)C(c2ccccc2)(c2ccccc2)N1 [phenyloin, 5.5-diphenyl-2,4-imidazolidinedione], the “portion of the wound healed” value ([1]; Example 16 patient, topical, weekly application, week 13) was “approximately 60%”, the “appearance of the wound” value ([1]; Example 16 patient, topical, weekly application, weeks 3-5) was “continued to appear generally healthy” and the “recurrence of the wound after healing” value ([1]; one patient per Example, Dilantin alone) was “the wound returned in substantially the same location; also recorded: the wound returned in approximately the same location”. The “time the wound took to heal completely” value ([1]; one patient per Example, Dilantin alone, topical) was “approximately 20 weeks and ~27 weeks and ~22 weeks and approximately 25 weeks”, the amputation outcome ([1]; one patient per Example, after treatment course) was “need to amputate the right leg below the knee; also recorded: need to amputate the left leg below the knee” and the “new skin formation (wound healing by secondary intention)” value ([1]; one patient per Example, topical, daily visits for 9 days then weekly, week 1) was “signs of new skin formation”. For the same compound, the granulation tissue formed [1, 2] was “approximately 20%”, the “portion of the wound healed” value [1, 2] was “approximately 35%; also recorded: approximately 25%” and the “portion of the wound healed” value ([1]; one patient per Example, topical, weekly application, week 9) was “approximately 40%”. The “portion of the wound healed” value ([1]; one patient per Example, topical, weekly application, week 10) was “approximately 60%”, the “appearance of the wound” value ([1]; one patient per Example, topical, weekly application, weeks 2-4) was “continued to appear generally healthy” and the “healing of the wound as noted” value ([1]; one patient per Example, topical, weekly application, weeks 5-7) was “beginning to heal very well, but was very slow healing”. For the same compound, the mean healing time (diabetic ulcers) was 21 days.
